Measurements taken from patent EP4703359A1 (Shanghai Simr Biotechnology Co., Ltd., priority 2023, dated 2024).
Structures can show the parent of a compound that is named as a salt.

Biological target: T1, α2-GABAA receptor (Homo sapiens, UniProt P18507+P47869)
T1 construct: expressed in transfected cells
Assay: Whole-cell patch-clamp electrophysiology, positive allosteric modulatory activity in α2-GABAAR-HEK293 cells
Assay type: cell-based
Conditions: compound 100 nM; GABA 0.10 to 0.11 µM (approximately EC7-8); normalized to reference compound CVL-865 (= 100%)
Source text: The α subunit, β subunit, and γ subunit are indispensable for forming a fully functional GABAA receptor. In this example, HEK293 cells stably expressing α2-GABAA receptors (α2-GABAAR) were constructed and screened respectively via liposome transfection (Felgner, P.L., et al. Proceedings of the National Academy of Sciences, 1987, 84: 7413-7417). The α2-GABAAR-HEK293 cell model co-expresses the α2 subunit (protein sequence referenced under GenBank accession number: NM_000807.4), β3 subunit (protein sequence referenced under GenBank accession number: NM_000814.5), and γ2 subunit (protein sequence referenced under GenBank accession number: NM_000816.3).
The above cell lines were subcultured. α2-GABAAR-HEK293 cells were amplified for testing the affinity of compounds to the benzodiazepine (BZD) site of GABAA receptors. Some of the α2-GABAAR-HEK293 cells in suspension during subculturing were plated on glass slides pre-treated with Poly-D-Lysine for electrophysiological testing (method reference: Patent CN 107344936 A, paragraph 0586).
The positive modulatory activity of the test drug on the α2-GABAA receptor was assessed using electrophysiological methods. The specific approach is as follows:
With regards to the concentration of the compound, the final concentration of all compounds used in the screening was 100 nM. For cell lines expressing α2-GABAA receptors, the GABA concentration was 0.10 to 0.11 µM (approximately EC7-8). Electrophysiological experiments were conducted using the whole-cell patch-clamp technique, which can be referenced to the method reported in the literature (Nickolls, S. A., et al. *British Journal of Pharmacology*, 2018, 175: 708-725). The composition of the extracellular solution (ECS) for electrophysiology was as follows: 150 mM NaCl, 5 mM KCl, 2.5 mM CaCl2, 1 mM MgCl2, 10 mM HEPES, and 10 mM glucose (pH 7.4). The intracellular solution (ICS) for electrophysiology was formulated as follows: 140 mM CsCl, 11 mM EGTA, 10 mM HEPES, 2 mM CaCl2, 1 mM MgCl2, 4 mM MgATP, and 2 mM TEA (pH 7.3). GABA (γ-aminobutyric acid) powder was dissolved in pure water to prepare a stock solution, which was subsequently diluted in ECS. The compound was initially dissolved in dimethyl sulfoxide to prepare a 4 mM stock solution, followed by stepwise dilution into GABA-ECS at corresponding concentrations. All solutions were freshly prepared prior to electrophysiological testing.
Electrophysiological signals were acquired using an EPC 10 amplifier and PatchMaster software (HEKA) or an Axon 700B amplifier and Clampex software (AXON). The recording electrode was pulled from borosilicate glass, with an electrode resistance of 4 to 6 MΩ. Extracellular administration was performed using the ALA-VC-8PG™ system. A single independently growing cell was selected. After forming a tight seal between the glass electrode and the cell membrane, the membrane was ruptured to establish the whole-cell configuration. The cell membrane potential was clamped at -60 mV and recorded in Gap-free mode. During the test, extracellular fluid was first applied externally for approximately 20 seconds. After the baseline (Iprebaseline) was stabilized, the extracellular solution was switched to GABA-ECS. At this point, the current induced by GABA (Igaba) can be detected. After approximately 10 to 20 seconds, once the current had stabilized, the extracellular solution was switched to a mixture of the compound and GABA-ECS until the current induced by both the compound and GABA (Itreatment) could be detected. Finally, the solution was switched to extracellular fluid, and the recording was terminated after 20 to 40 seconds. Only cells with a stable baseline, an absolute control current magnitude (Igaba - Iprebaseline) greater than 40 pA, and a relatively stable current within 10 to 20 seconds were used for compound testing. […]

T1 sequence (P47869 29-451): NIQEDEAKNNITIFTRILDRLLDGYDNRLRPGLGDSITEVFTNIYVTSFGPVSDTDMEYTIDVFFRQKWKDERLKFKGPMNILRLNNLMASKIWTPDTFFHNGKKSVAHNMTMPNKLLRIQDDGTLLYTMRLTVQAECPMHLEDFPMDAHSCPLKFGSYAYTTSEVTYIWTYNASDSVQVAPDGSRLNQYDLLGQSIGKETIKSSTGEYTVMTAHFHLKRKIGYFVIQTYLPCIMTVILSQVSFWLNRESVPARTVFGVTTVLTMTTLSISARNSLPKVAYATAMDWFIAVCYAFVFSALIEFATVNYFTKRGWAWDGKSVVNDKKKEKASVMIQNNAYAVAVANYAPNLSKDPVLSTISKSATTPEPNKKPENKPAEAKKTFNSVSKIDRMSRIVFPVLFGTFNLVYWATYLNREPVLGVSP
T1 sequence (P18507 40-467 isoform P18507-1 limits assumed): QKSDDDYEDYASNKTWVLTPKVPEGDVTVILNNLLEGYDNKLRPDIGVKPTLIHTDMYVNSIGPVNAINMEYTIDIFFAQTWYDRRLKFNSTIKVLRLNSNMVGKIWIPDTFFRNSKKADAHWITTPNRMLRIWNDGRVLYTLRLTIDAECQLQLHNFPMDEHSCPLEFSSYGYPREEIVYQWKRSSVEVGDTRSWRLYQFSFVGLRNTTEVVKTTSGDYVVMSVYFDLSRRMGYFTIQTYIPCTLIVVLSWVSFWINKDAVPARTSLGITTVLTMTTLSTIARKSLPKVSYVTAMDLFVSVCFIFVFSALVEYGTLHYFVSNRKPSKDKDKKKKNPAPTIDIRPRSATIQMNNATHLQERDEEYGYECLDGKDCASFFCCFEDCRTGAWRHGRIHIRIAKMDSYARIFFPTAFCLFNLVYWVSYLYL
T1 sequence (P28472 26-473 partner): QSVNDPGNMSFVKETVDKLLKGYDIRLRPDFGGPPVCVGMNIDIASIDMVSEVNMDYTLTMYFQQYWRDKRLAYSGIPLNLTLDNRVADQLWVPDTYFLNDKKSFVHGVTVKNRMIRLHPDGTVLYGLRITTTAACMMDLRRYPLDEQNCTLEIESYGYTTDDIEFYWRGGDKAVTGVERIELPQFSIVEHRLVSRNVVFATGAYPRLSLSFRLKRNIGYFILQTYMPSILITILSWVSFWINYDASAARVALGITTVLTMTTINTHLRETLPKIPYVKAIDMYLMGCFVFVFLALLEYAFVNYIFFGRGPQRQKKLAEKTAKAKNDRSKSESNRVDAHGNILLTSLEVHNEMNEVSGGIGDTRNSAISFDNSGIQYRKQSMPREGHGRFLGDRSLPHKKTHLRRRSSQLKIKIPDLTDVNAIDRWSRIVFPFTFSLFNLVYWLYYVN

Row | Structure (SMILES) | α2-GABAAR Positive allosteric modulatory activity [%]
1 | COc1cccc(F)c1-c1c(F)ccn2c(N)c(C(=O)NCCC(F)(F)F)nc12 [Example 125, 3-Amino-7-fluoro-8-(2-fluoro-6-methoxyphenyl)-N-(3,3,3-trifluoropropyl)propylimidazo[1,2-a]pyridine-2-carboxamide] | 70
2 | [2H]c1cc(-c2c(F)cccc2OC)c2nc(C(=O)NCCC)c(N)n2c1 [Example 154, 3-Amino-8-(2-fluoro-6-methoxyphenyl)-N-propylimidazo[1,2-a]pyridine-6-deuterio-2-carboxamide] | 84
3 | CCCNC(=O)c1nc2c(-c3cc4ncoc4cc3F)cccn2c1N [Example 98] | 64

Same assay, conditions: compound 100 nM; GABA 0.10 to 0.11 µM (approximately EC7-8); normalized to reference compound CVL-865 (= 100%); read-out: α2-GABAAR Positive allosteric modulatory activity

Row | Emax at 0.1 µM [%] | Structure (SMILES)
4 | 100 | CCCNC(=O)c1nc2c(-c3c(F)ccc4c3OCC4)cccn2c1N [Example 106, 3-Amino-8-(6-fluoro-2,3-dihydrobenzofuran-7-yl)-N-propylimidazo[1,2-a]pyridine-2-carboxamide]
5 | 48 | CCCNC(=O)c1nc2c(-c3cncc(C)c3)cccn2c1N [Example 87, 3-Amino-8-(5-methylpyridin-3-yl)-N-propylimidazo[1,2-a]pyridine-2-carboxamide]
6 | 77 | CCCNC(=O)c1nc2c(-c3cc(OC)ccc3OC)c(F)ccn2c1N [Example 111]
7 | 112 | CCCNC(=O)c1nc2c(-c3c(F)ccc4ccoc34)cccn2c1N [Example 101, 3-Amino-8-(6-fluorobenzofuran-7-yl)-N-propylimidazo[1,2-a]pyridine-2-carboxamide]
8 | 33 | CCCNC(=O)c1nc2c(-c3cc4c(cc3OC)N(C)CCO4)cccn2c1N [Example 92, 3-Amino-8-(6-methoxy-4-methyl-3,4-dihydro-2H-benzo[b][1,4]oxazin-7-yl)-N-propylimidazo[1,2-a]pyridine-2-carboxamide]
9 | 73 | CCCNC(=O)c1nc2c(-c3ccnc(C)c3)cccn2c1N [Example 86, 3-Amino-8-(2-methylpyridin-4-yl)-N-propylimidazo[1,2-a]pyridine-2-carboxamide]
10 | 27 | COc1cccc(F)c1-c1cccn2c(N)c(C(=O)NC34CC(C3)C4)nc12 [Example 11, 3-Amino-N-(bicyclo[1.1.1]pent-1-yl)-8-(2-fluoro-6-methoxyphenyl)imidazo[1,2-a]pyridine-2-carboxamide]
11 | 124 | CCCNC(=O)c1nc2c(-c3cnccc3OC)c(F)ccn2c1N [Example 114, 3-Amino-7-fluoro-8-(4-methoxypyridin-3-yl)-N-propylimidazo[1,2-a]pyridine-2-carboxamide]
12 | 59 | CCCNC(=O)c1nc2c(-c3cnc(OC)nc3OC)c(F)ccn2c1N [Example 120, 3-Amino-8-(2,4-dimethoxypyrimidin-5-yl)-7-fluoro-N-propylimidazo[1,2-a]pyridine-2-carboxamide]
13 | 49 | CCCNC(=O)c1nc2c(-c3c(F)cccc3OC)c(C(F)F)ccn2c1N [Example 128, 3-Amino-7-(difluoromethyl)-8-(2-fluoro-6-methoxyphenyl)-N-propylimidazo[1,2-a]pyridine-2-carboxamide]
14 | 49 | CCCNC(=O)c1nc2c(-c3cc(F)cc(F)c3)c(F)ccn2c1N [Example 113, 3-Amino-8-(3,5-difluorophenyl)-7-fluoro-N-propylimidazo[1,2-a]pyridine-2-carboxamide]
15 | 56 | CCCNC(=O)c1nc2c(-c3c(F)cccc3OC)cc(F)cn2c1N [Example 155, 3-Amino-6-fluoro-8-(2-fluoro-6-methoxyphenyl)-N-propylimidazo[1,2-a]pyridine-2-carboxamide]
16 | 25 | CC#Cc1cccc(-c2cccn3c(N)c(C(=O)NCCC)nc23)c1 [Example 40, 3-Amino-8-(3-(prop-1-yn-1-yl)phenyl)-N-propylimidazo[1,2-a]pyridine-2-carboxamide]
17 | 88 | CCCNC(=O)c1nc2c(-c3ccc(F)cc3OC)c(F)ccn2c1N [Example 121, 3-Amino-7-fluoro-8-(4-fluoro-2-methoxyphenyl)-N-propylimidazo[1,2-a]pyridine-2-carboxamide]
18 | 81 | C=CCNC(=O)c1nc2c(-c3c(F)cccc3OC)cccn2c1N [Example 30, N-Allyl-3-amino-8-(2-fluoro-6-methoxyphenyl)imidazo[1,2-a]pyridine-2-carboxamide]
19 | 57 | COc1cccc(F)c1-c1cccn2c(N)c(C(=O)NCCCO)nc12 [Example 23, 3-Amino-8-(2-fluoro-6-methoxyphenyl)-N-(3-hydroxypropyl)imidazo[1,2-a]pyridine-2-carboxamide]
20 | 54 | COc1cccc(F)c1-c1cccn2c(N)c(C(=O)Nc3ccccn3)nc12 [Example 14, 3-Amino-8-(2-fluoro-6-methoxyphenyl)-N-(pyridin-2-yl)imidazo[1,2-a]pyridine-2-carboxamide]
21 | 141 | CCCNC(=O)c1nc2c(-c3cc(F)ccc3OC)c(F)ccn2c1N [Example 110, 3-Amino-7-fluoro-8-(5-fluoro-2-methoxyphenyl)-N-propylimidazo[1,2-a]pyridine-2-carboxamide]
22 | 45 | CCCNC(=O)c1nc2c(-c3cccnc3C)cccn2c1N [Example 142, 3-Amino-8-(2-methylpyridin-3-yl)-N-propylimidazo[1,2-a]pyridine-2-carboxamide]
23 | 53 | CCCNC(=O)c1nc2c(-c3c(F)cccc3OC)c(Cl)ccn2c1N [Example 130, 3-Amino-7-chloro-8-(2-fluoro-6-methoxyphenyl)-N-propylimidazo[1,2-a]pyridine-2-carboxamide]
24 | 60 | CCCNC(=O)c1nc2c(-c3cccnc3F)cccn2c1N [Example 90, 3-Amino-8-(2-fluoropyridin-3-yl)-N-propylimidazo[1,2-a]pyridine-2-carboxamide]
25 | 35 | COc1cccc(F)c1-c1cccn2c(N)c(C(=O)NCc3ccccn3)nc12 [Example 20, 3-Amino-8-(2-fluoro-6-methoxyphenyl)-N-(pyridin-2-methyl)imidazo[1,2-a]pyridine-2-carboxamide]
26 | 25 | COc1cccc(F)c1-c1cccn2c(N)c(C(=O)NCCO)nc12 [Example 22, 3-Amino-8-(2-fluoro-6-methoxyphenyl)-N-(2-hydroxyethyl)imidazo[1,2-a]pyridine-2-carboxamide]
27 | 48 | CCCNC(=O)c1nc2c(-c3cnc(OC)nc3OC)cccn2c1N [Example 81, 3-Amino-8-(2,4-dimethoxypyrimidin-5-yl)-N-propylimidazo[1,2-a]pyridine-2-carboxamide]
28 | 94 | CCCNC(=O)c1nc2c(-c3c(F)ccc4ncoc34)cccn2c1N [Example 100, 3-Amino-8-(6-fluorobenzoxazol-7-yl)-N-propylimidazopyridine-2-carboxamide]
29 | 44 | CC1CN(C(=O)c2nc3c(-c4c(F)ccc5ccoc45)cccn3c2N)C1 [Example 102, (3-Amino-8-(6-fluorobenzofuran-7-yl)imidazo[1,2-a]pyridin-2-yl)(3-methylazetidin-1-yl)methanone]

Same assay, conditions: read-out: α2-GABAAR Positive allosteric modulatory activity

Row | Structure (SMILES) | Emax at 0.1 µM [%]
30 | CCCNC(=O)c1nc2c(CC(C)C)cccn2c1N [Example 143, 3-Amino-8-isobutyl-N-propylimidazo[1,2-a]pyridine-2-carboxamide hydrochloride] | 48
